# Measurements taken from patent US20250090437A1, “COSMETIC COMPOUNDING AGENT, COSMETIC AND PRODUCTION METHOD THEREOF” (MIYOSHI OIL & FAT CO., LTD., priority 2019, published 2025).
# Key:
# [1] = Water retention property test 1; type: physicochemical; conditions: 80 wt % aqueous solution; for Pre-test moisture rate: before the test (Karl Fischer); for Post-test moisture rate / Rate of reduction in moisture: unsealed, 24 hours at 40° C. and 25% RH
# Procedure: A moisture rate after 24 hours was again measured (post-test moisture rate: B), followed by using the formula below to calculate a rate of reduction in moisture so as to evaluate the water retention property. • Pre-test moisture rate: A (%) • Post-test moisture rate: B (%)
# [2] = Water confinement property test (barrier property); type: physicochemical; conditions: 80 wt % aqueous solution, 0.01 mL/cm^2 on filter paper, 40° C. and 25% RH, 24 hours
# Procedure: Next, 20.0 g of an ion-exchange water was put into a 40 mL pierce vial bottle (by AS ONE Corporation.), followed by removing an inner lid (rubber plug) of the pierce vial bottle, placing on the pierce vial bottle the filter paper to which each sample had been applied, and then plugging the bottle with an outer lid.
# Further, Wm1, Wm2, Sm1 and Sm2 in the formula below respectively represent the following numerical values.
# Wm1: Weight of ion-exchange water in vial before storage (using filter paper to which only ion-exchange water had been applied)
# Wm2: Weight of ion-exchange water in vial after 24 hours (using filter paper to which only ion-exchange water had been applied)
# Sm1: Weight of ion-exchange water in vial before storage (using filter paper to which sample had been applied)
# Sm2: Weight of ion-exchange water in vial after 24 hours (using filter paper to which sample had been applied)
# [3] = Water retention property and adherability with respect to healthy hair; parameters: species or system human; conditions: for Compound adhesion rate / Post-test moisture rate: healthy hair immersed 60 min in 80 wt % aqueous solution; for Post-test moisture rate: after 24 hours at 40° C., pre-test 7.6%; for Post-test moisture rate / Rate of reduction in moisture: 35 to 40% RH; for Rate of reduction in moisture: healthy hair, 80 wt % aqueous solution, 24 hours at 40° C.
# Procedure: In the following evaluations, a human black hair produced by Beaulax Co., Ltd was used as a healthy hair. A damaged hair was prepared by repeatedly having the healthy hair permed and bleached three times.
# An 80 wt % aqueous solution of each of the compounds B1 to B26 (content in terms of anhydride in the cases of the compounds B1 to B23) was prepared, followed by using a Karl Fischer moisture meter (KF-200 by Mitsubishi Chemical Analytech Co., Ltd.) to confirm that a moisture rate was 20.0 wt %. As a healthy hair, there was used a chemically untreated healthy hair (human black hair by Beaulax Co., Ltd). The moisture rate (pre-test moisture rate A) of the hair was measured by an infrared moisture meter (by Kett Electric Laboratory).
# After immersion, the hair was taken out, and KimWipes were then used to wipe off the compound until a change in weight was no longer observed, followed by measuring the weight of the hair (post-test hair weight B). The hair from which the compound had been wiped off was then placed into a thermo-hygrostat set to 40° C. and 35 to 40% RH. A moisture rate after 24 hours (post-test moisture rate B) was then measured, followed by calculating a rate of reduction in moisture with the following formula. Likewise, instead of the 80 wt % aqueous solution, evaluation was also performed in a similar manner using only an ion-exchange water (comparative example B4).
# Further, an adhesion rate of the compound adhering to the hair was calculated with the following formula. […]
# [4] = Water retention property test 3 (long term); type: physicochemical; conditions: for Amount of moisture reduction in 0 to 24 h / Amount of moisture reduction in 24 to 96 h / Amount of moisture reduction in 96 to 120 h / Amount of moisture reduction per hour / Pre-test moisture rate / Moisture rate after 24 h / Moisture rate after 96 h / Moisture rate after 120 h: 80 wt % aqueous solution; for Amount of moisture reduction in 0 to 24 h / Amount of moisture reduction in 24 to 96 h / Amount of moisture reduction in 96 to 120 h: 1.0 g; for Amount of moisture reduction in 0 to 24 h / Amount of moisture reduction in 24 to 96 h / Amount of moisture reduction in 96 to 120 h / Amount of moisture reduction per hour / Moisture rate after 24 h / Moisture rate after 96 h / Moisture rate after 120 h: 40° C. and 25% RH; for Pre-test moisture rate: before the test; for Moisture rate after 24 h / Moisture rate after 96 h / Moisture rate after 120 h: unsealed
# Procedure: In a water retention property test 3, an 80 wt % aqueous solution of each of the compounds C8, C11, C62, C63 and C64 was prepared, followed by using a Karl Fischer moisture meter to confirm that a moisture rate was 20.0 wt %. Next, 1.0 g of each of these samples was added to a screw tube, and this screw tube, while remaining unsealed, was then left to stand still in a thermo-hygrostat set to 40° C. and 25% RH. […] In addition, the water retention property was evaluated by calculating an amount of moisture reduction per hour (mg/h) based on each amount of moisture reduction (mg).
smiles,measurement,setting,value
CC(CO)(CO)CO [Compound C53],Pre-test moisture rate,[1],20.0%
same,Post-test moisture rate,[1],19.1%
same,Rate of reduction in moisture,[1],4.4%
same,Water evaporation inhibition rate,[2],34.6%
O [Compound B21],Compound adhesion rate,[3],1.1%
same,Post-test moisture rate,[3],5.8%
same,Rate of reduction in moisture,[3],24%
NC(CO)(CO)CO.O=C(O)CC(O)(CC(=O)O)C(=O)O [Compound C82],Water evaporation inhibition rate,[2],35.8%
"CCCCn1cc[n+](C)c1.[Cl-] [Compound B25, 1-butyl-3-methylimidazolium chloride, reference compound]",Compound adhesion rate,[3],1.0%
same,Post-test moisture rate,[3],4.0%
same,Rate of reduction in moisture,[3],47%
NC(CO)(CO)CO.O=C(O)CC(O)(CC(=O)O)C(=O)O [Compound B13],Compound adhesion rate,[3],2.3%
same,Post-test moisture rate,[3],6.5%
same,Rate of reduction in moisture,[3],15%
CC(CO)(CO)CO [Compound C52],Pre-test moisture rate,[1],20.0%
same,Post-test moisture rate,[1],18.6%
same,Rate of reduction in moisture,[1],7.1%
same,Water evaporation inhibition rate,[2],36.8%
NC(CO)(CO)CO.O=C1OC(C(O)CO)C(O)=C1O (centres unmarked) [Compound B20],Compound adhesion rate,[3],2.1%
same,Post-test moisture rate,[3],6.6%
same,Rate of reduction in moisture,[3],14%
O [Compound B8],Compound adhesion rate,[3],1.3%
same,Post-test moisture rate,[3],6.1%
same,Rate of reduction in moisture,[3],20%
CC(CO)(CO)CO [Compound C51],Pre-test moisture rate,[1],20.0%
same,Post-test moisture rate,[1],19.1%
same,Rate of reduction in moisture,[1],4.5%
same,Water evaporation inhibition rate,[2],35.6%
CC(CO)(CO)CO [Compound C54],Pre-test moisture rate,[1],20.0%
same,Post-test moisture rate,[1],18.8%
same,Rate of reduction in moisture,[1],5.8%
same,Water evaporation inhibition rate,[2],30.3%
CS(=O)(=O)O.NC(CO)CO [Working example C118],Amount of moisture reduction in 0 to 24 h,[4]; 0~24 h,6.5 mg
same,Amount of moisture reduction in 24 to 96 h,[4]; 24~96 h,20.0 mg
same,Amount of moisture reduction in 96 to 120 h,[4]; 96~120 h,4.1 mg
same,Amount of moisture reduction per hour,[4]; 0~24 h,0.3 mg/h
same,Amount of moisture reduction per hour,[4]; 24~96 h,0.3 mg/h
same,Amount of moisture reduction per hour,[4]; 96~120 h,0.2 mg/h
same,Pre-test moisture rate,[4],20.0%
same,Moisture rate after 24 h,[4],19.4%
same,Moisture rate after 96 h,[4],17.6%
same,Moisture rate after 120 h,[4],15.4%
same,Moisture rate of hydrate,[4],16.1%
CC(O)C(=O)O.NC(CO)CO (centres unmarked) [Working example C117],Amount of moisture reduction in 0 to 24 h,[4]; 0~24 h,6.7 mg
same,Amount of moisture reduction in 24 to 96 h,[4]; 24~96 h,20.1 mg
same,Amount of moisture reduction in 96 to 120 h,[4]; 96~120 h,4.0 mg
same,Amount of moisture reduction per hour,[4]; 0~24 h,0.3 mg/h
same,Amount of moisture reduction per hour,[4]; 24~96 h,0.3 mg/h
same,Amount of moisture reduction per hour,[4]; 96~120 h,0.2 mg/h
same,Pre-test moisture rate,[4],20.0%
same,Moisture rate after 24 h,[4],19.5%
same,Moisture rate after 96 h,[4],17.8%
same,Moisture rate after 120 h,[4],15.8%
same,Moisture rate of hydrate,[4],16.6%
CC(N)(CO)CO.NCCCCCC(=O)O [Compound C76],Water evaporation inhibition rate,[2],35.7%
CC(C)(CO)CO [Compound C65],Water evaporation inhibition rate,[2],39.4%
OCC(O)CO [Comparative example C15],Amount of moisture reduction in 0 to 24 h,[4]; 0~24 h,24.6 mg
same,Amount of moisture reduction in 24 to 96 h,[4]; 24~96 h,74.8 mg
same,Amount of moisture reduction in 96 to 120 h,[4]; 96~120 h,25.0 mg
same,Amount of moisture reduction per hour,[4]; 0~24 h,1.0 mg/h
same,Amount of moisture reduction per hour,[4]; 24~96 h,1.0 mg/h
same,Amount of moisture reduction per hour,[4]; 96~120 h,1.0 mg/h
same,Pre-test moisture rate,[4],20.0%
same,Moisture rate after 24 h,[4],18.0%
same,Moisture rate after 96 h,[4],11.1%
same,Moisture rate after 120 h,[4],8.6%
CC(CO)(CO)CO [Compound C77],Water evaporation inhibition rate,[2],35.4%
NC(CO)(CO)CO.O=C(O)CO [Compound B14],Compound adhesion rate,[3],1.3%
same,Post-test moisture rate,[3],7.4%
same,Rate of reduction in moisture,[3],3%
CS(=O)(=O)O.NC(CO)(CO)CO [Compound C83],Water evaporation inhibition rate,[2],31.3%
CC(=O)CCC(=O)O.NC(CO)(CO)CO [Compound B17],Compound adhesion rate,[3],6.9%
same,Post-test moisture rate,[3],6.5%
same,Rate of reduction in moisture,[3],15%
